Measurements published in patent US6680301B2, “Transfer of molecules into the cytosol of cells” (Photocure AS, priority 1994, dated 2004).
Entries after “also recorded” stand apart in the source; their conditions may differ. [FluoU] = uridine (ribose) carrying fluorescein on the base; {invT} = 3'-3' inverted thymidine; m = 2'-O-methyl; r = 2'-OH (RNA)

Experiments:
THX-cells [1] = assay: Transfection efficiency after PCI with different doses of AlPcS2a (Example 20); type: cell-based, human; details: 5 or 40 μg/ml AlPcS2a, pEGFP-N1-polylysine complex, 2 or 4 min light
Procedure: FIG. 21 illustrates transfection efficiency after PCI with different doses of AlPcS2a. Cells were treated with different doses of the photosensitizer, transfected with a plasmid DNA-polylysine complex and analysed by flow cytometry as described in the text of Example 20. the white bars represent an AlPcS2a dose of 5 μg/ml, while the black bars represent 40 μg/ml.
THX-cells were seeded out into 6 well plates (60 000 cells per well). After overnight incubation AlPcS2a in concentrations of 5 μg/ml or 40 μg/ml was added, and the cells were incubated for 18 h at 37° C. The cells were then washed 3 times with culture medium and transfected with pEGFP-N1-polylysine complex (amount of plasmid 5 μg/ml, charge ratio 1.2, see Example 17) for 6 h. The transfected cells were washed once with medium, and after addition of 2 ml of culture medium the cells were exposed to red light (Phillips TL 20 W/09, filtered through a Cinemoid 35 filter) for 2 or 4 min (control cells were not exposed to the light) and incubated further at 37° C. for 40 hrs before flow cytometry analysis (see Example 17).

V79 cells = assay: Protein synthesis after photosensitizer and light with or without gelonin; type: cell-based, Chinese hamster; details: 25 μg/ml AlPcS2a
Procedure: FIG. 5 illustrates protein synthesis in V79 cells after treatment with 25 μg/ml AlPcS2 and light in the absence and presence of 1 μg/ml gelonin. Symbols: ● Photosensitizer+toxin; ◯ photosensitizer.
(§1) The intracellular location of the photosensitizers are lysosomal (TPPS4, TPPS2a, AlPcS2a) and extralysosomal (3-THPP). The following abbreviations are used: AlPcS2a for aluminum phtalocyanine with 2 sulfonate groups on adjacent phenyl rings; TPPS4 for meso-tetraphenylporphine with 4 sulfonate groups; TPPS2a for meso-tetraphenylporphine with 2 sulfonate groups on adjacent phenyl rings; 3-THPP for tetrahydroxylphenyl porphine. The cell lines used were carcinoma cells in situ from human cervix (NHIK 3025), Chinese hamster lung fibroblasts (V79), SV40-transformed African Green monkey kidney (CV1-simian fibroblasts-like cells) (Cos-7) human osteosarcoma cells (OHS) and small cell lung cancer cells (H146). All experiments were designed as in Example 1.
This example relates to use of the photosensitizer AlPcS2a in V79 cells with or without gelonin as the toxin (FIG. 5). […] (Moan, J., Berg, K., Anholt, H. and Madslien, K. (1994). Sulfonated aluminum phtalocyanines as sensitizers for photochemotherapy. Effects of small light doses on localization, dye fluorescence and photosensitivity in V79 cells. Int. J. Cancer 58: 865-870.)

NHIK 3025 cells [2] = assay: Protein synthesis (3[H]leucine incorporation) after photosensitizer, toxin and light; type: cell-based, human
Procedure: FIG. 2 illustrates protein synthesis in NHIK 3025 cells after treatment with gelonin in the absence or presence of TPPS2a and 50 sec light exposure. Symbols: ◯, TPPS2a+light; ●, −TPPS2a−light; ∇, +TPPS2a−light; ▾, −TPPS2a+light. […] Protein synthesis was measured by measuring incorporation of ^3[H]leucine into proteins, 24 hours after light exposure.
(§2) NHIK 3025 cells were incubated with TPPS2a (Formula I) and gelonin, separately or together for 18 hours, followed by 1 hour in TPPS2a and gelonin-free medium before the cells were exposed to light. Protein synthesis was measured 24 hours after exposure to light. The photodynamic treatment, which kills 10-20% of the cells alone, reduced the protein synthesis by 30-40% (FIG. 2).
as §1

NHIK 3025 cells [3] = assay: Cell killing / clonogenic survival after TPPS2a, gelonin and light; type: cell-based, human
Procedure: as §2
NHIK 3025 cells were incubated with TPPS2a and gelonin according to the design of Example 1.
Clonogenic survival of the cells was measured 24 hours after exposure to light. […] This is in accordance with prior art regarding killing unwanted cells with PDT. […] Increased concentration of added gelonin leads to more gelonin in the cytosol, as indicated by an increased sensitivity of the cells to photoactivation.

COS-7 cells = assay: Protein synthesis after TPPS2a and light with or without gelonin; type: cell-based, African Green monkey; details: 3 μg/ml TPPS2a, 1 μg/ml gelonin
Procedure: FIG. 11 illustrates protein synthesis in COS-7 cells after treatment with 3 μg/ml TPPS2a and light in the absence and presence of 1 μg/ml gelonin. Symbols as in FIG. 5.
as §1

H146 cells = assay: as above; type: cell-based; details: 0.3 μg/ml TPPS2a, 1 μg/ml gelonin
Procedure: FIG. 6 illustrates protein synthesis in H146 cells after treatment with 0.3 μg/ml TPPS2a and light in the absence and presence of 1 μg/ml gelonin. Symbols as in FIG. 5.
as §1
(FIG. 6). TPPS2a is known to be lysosomally located in the cell. […]

OHS cells = assay: as above; type: cell-based, human; details: 3 μg/ml TPPS2a, 3 μg/ml gelonin, 50 μM chloroquine or 10 mM NH4Cl
Procedure: FIG. 13 illustrates protein synthesis in OHS cells after treatment with 3 μg/ml TPPS2a for 18 hours followed by 4 hours in the absence of TPPS2a and in the absence or presence of 3 μg/ml gelonin before exposure to light. The cells were incubated for the same 4 hours in 50 μM chloroquine or 10 mM NH4Cl to inhibit lysosomal protein degradation.
as §1
(FIG. 13). In this cell line there is a considerable protein degradation in the lysosomes, which in the present example is inhibited by incubating the cells for 4 hours in either 50 μM chloroquine or 10 mM NH4Cl.

THX-cells [4] = assay: PCI-induced transfection of TPPS2a-treated THX-cells (Example 23); type: cell-based, human; details: 2 μg/ml TPPS2a, blue light 30-150 s, pEGFP-N1-polylysine complex
Procedure: FIG. 24 illustrates PCI induced transfection of TPPS2a-treated THX-cells. Cells were treated with TPPS2a and transfected with a complex of plasmid DNA and polylysine as described in the text of Example 23. After light treatment the cells were analysed by flow cytometry. The white circle represents the total population of living cells, the black sector represents the fraction of cells that was positive for GFP-expression. Light exposure times are indicated on the Figure.
A pEGFP-N1-polylysine complex (5 μg DNA, charge ratio 1.2 was prepared as described above (see Example 17).
THX-cells were seeded out into 6 well plates (60 000 cells per well). After overnight incubation 2 μg/ml of the photosensitizer TPPS2a was added and the cells were incubated further for 18 h at 37° C. The cells were then washed 3 times with culture medium and transfected with the pEGFP-N1-polylysine complex for 6 h. The transfected cells were washed once with medium, and after addition of 2 ml of culture medium the cells were exposed to blue light (Appl. Photophysics, Nood. 3026, London) for 30, 60, 90, 120 or 150 s (control cells were not exposed to the light) and incubated further at 37° C. After 2 days the cells were seeded out into bigger 3004 dishes and incubated further so that the total incubation time before flow cytometry analysis was 108 h.

lysosomal cathepsin = assay: Inhibition of lysosomal cathepsin by photodynamic action; type: cell-based, human; details: culture of NHIK 3025 cells
Description: This was a surprising effect of the present invention and assists in maintaining the viability and functionality of the cells after transporting molecules into cytosol by disrupting endosomal/lysosomal membranes.

THX human melanoma cells = assay: PCI relocalization of fluorescein-labeled ribozyme (fluorescence microscopy); type: cell-based
Procedure: FIG. 14 illustrates subcellular localization of a fluorescein-ribozyme (5.5 μM) and AlPcS2a (20 μg/ml) in THX cells after 18 h incubation followed by 1 h wash. The Figure illustrates localization without light exposure (A) and after 10 min red light exposure followed by 40 min incubation in the dark (B). (Magnification 40×2.5).
The ribozyme employed in this example was a 37-mer synthetic 2′-O-methylated ribozyme designed against mRNA of the metastasis associated protein capl. The sequence (SEQ ID NO:1) was as follows:
5′-UAGUUCUCU GAUGAGGCCGNUAGGCCGAAA CUUGUU Y-3′, (SEQ ID NO: 1) where N is bases with 2′-O-methylated ribose, Y is uridine with a 3′-3′ inverted thymidine at the 3′ end, N is fluorescein attached to uracil.
To study the intracellular localization of the photosensitizer AlPcS2a and the ribozyme, THX human melanoma cells were plated on 16 well Lab-Tek (Nunc Inc.) chamber slides (3000 cells well^−1). After 18 h the culture medium was replaced with fresh RPMI medium supplemented with 10% fetal calf serum (FCS, Integro b.v., Holland) and containing […] AlPcS2a and […] ribozyme. […]
Control cells were observed without irradiation. […] Phase-contrast and fluorescence micrographs were recorded by means of a cooled charge-coupled device (CCD) camera (Astromed 3200, Cambridge, England).

## aluminum phtalocyanine with 2 sulfonate groups on adjacent phenyl rings [AlPcS2a, reference compound]
THX-cells [1]
  percentage of transfected cells versus photosensitizer concentration: increased with increasing photosensitizer concentration
V79 cells; selected light dose
  protein synthesis with photosensitizer and light, without toxin: small reduction in protein synthesis

## saporin
NHIK 3025 cells [2]; 3.2 μg/ml TPPS2a, 1 μg/ml toxin
  transport of toxin into cells by TPPS2a and light: demonstrates transport of the toxin saporin into NHIK 3025 cells

## gelonin
NHIK 3025 cells [3]; 0.2 or 2.0 μg/ml gelonin
  clonogenic survival when gelonin is added to TPPS2a and light: the survival rate drops
NHIK 3025 cells [2]; 3.2 μg/ml TPPS2a, 50 sec light, measured 24 hours after light
  IC50 of gelonin for inhibition of protein synthesis when combining PDT and gelonin: 0.2 µg/mL
NHIK 3025 cells [2]; 75 μg/ml TPPS4, 50 sec light, different gelonin concentrations
  transport of gelonin into cells with TPPS4 and light: demonstrates transport of gelonin into NHIK 3025 cells
NHIK 3025 cells [2]; gelonin alone with light, or TPPS4 and gelonin without light
  transport of gelonin into cells in controls: no transport of gelonin into the cells was obtained
NHIK 3025 cells [2]; gelonin alone, presence or absence of light, no PDT
  effect of gelonin alone on protein synthesis: inhibits protein synthesis to some extent
COS-7 cells
  transport of toxin into cells by TPPS2a and light: demonstrates the transport of gelonin into COS-7 cells
H146 cells
  transport of toxin into cells by TPPS2a and light: transport of the toxin gelonin into H146 cells without essentially affecting the viability of the cells
OHS cells
  transport of toxin into cells by TPPS2a and light: demonstrates the transport of gelonin into OHS cells
V79 cells; 1 μg/ml gelonin
  protein synthesis with photosensitizer, light and gelonin: profoundly reduced

## Oc1cccc(-c2c3nc(c(-c4cccc(O)c4)c4ccc([nH]4)c(-c4cccc(O)c4)c4nc(c(-c5cccc(O)c5)c5ccc2[nH]5)C=C4)C=C3)c1 [3-THPP, tetrahydroxylphenyl porphine, reference compound]
NHIK 3025 cells [2]; 0.25 μg/ml 3-THPP, light, 1 μg/ml gelonin, comparative example
  difference in protein synthesis effect with or without gelonin: no significant difference

## O=S(=O)(O)c1ccc(-c2c3nc(c(-c4ccc(S(=O)(=O)O)cc4)c4ccc([nH]4)c(-c4ccccc4)c4nc(c(-c5ccccc5)c5ccc2[nH]5)C=C4)C=C3)cc1 [TPPS2a, meso-tetraphenylporphine with 2 sulfonate groups on adjacent phenyl rings]
THX-cells [4]
  transfection-enhancing effect of PCI light treatment with TPPS2a as photosensitizer: substantial transfection-enhancing effect; also recorded: essentially the same as for AIPcS2a
NHIK 3025 cells [3]; TPPS2a and light, no gelonin
  cells killed by the photodynamic treatment alone: 10-20%
NHIK 3025 cells [3]; light exposure increased, 24 hours after light
  clonogenic survival with TPPS2a and light: virtually all cells were killed
NHIK 3025 cells [2]; TPPS2a and light, no gelonin, 24 hours after light
  reduction of protein synthesis by the photodynamic treatment alone: 30-40%
Lysosomal cathepsin
  inhibition of lysosomal cathepsin by photodynamic action: substantially inhibited

## ribozyme: 37-mer synthetic 2′-O-methylated fluorescein-labeled ribozyme designed against mRNA of the metastasis associated protein capl (SEQ ID NO:1) (UAGUUCUCUGAUGAGGCCGUUAGGCCGAAACUUGUUY; sugars from the 5' end mmmmmmmmmrrmrrrrmmrrrrrrmmrrrrmmmmmmr, [FluoU] at 20, 3' {invT}, backbone and the base at N not given here)
THX human melanoma cells; 5.5 μM ribozyme, 20 μg/ml AlPcS2a, 18 h, no light
  subcellular localization, nonirradiated cells: mainly localized in intracellular granules
THX human melanoma cells; 10 min red light, then 40 min
  subcellular localization after light exposure: most of the ribozyme fluorescence was present in the cytosol
